Measurements published in patent US10239925B2, “Peptides and combination of peptides for use in immunotherapy against ovarian cancer and other cancers” (IMMATICS BIOTECHNOLOGIES GMBH, priority 2015, dated 2019).

Key:
[1] = test system: CD8+ T cells; assay: In vitro immunogenicity: priming of CD8+ T cells with aAPCs loaded with peptide/MHC and anti-CD28, multimer readout; format: cell-based, human; details: for Wells positive [%]: HLA-A*02 restricted peptides, percentage of positive wells (among evaluable)
Description: In an aspect, the peptides are pre-screened for immunogenicity before being included in the warehouse. By way of example, and not limitation, the immunogenicity of the peptides included in the warehouse is determined by a method comprising in vitro T-cell priming through repeated stimulations of CD8+ T cells from healthy donors with artificial antigen presenting cells loaded with peptide/MHC complexes and anti-CD28 antibody.
FIGS. 3A to 3F show exemplary immunogenicity data: flow cytometry results after peptide-specific multimer staining. CD8+ T cells were primed using artificial APCs coated with anti-CD28 mAb and HLA-A*02 in complex with SeqID No 662 (FIG. 3A, left panel), SeqID No 663 (FIG. 3B, left panel), SeqID No 11 peptide (FIG. 3C, left panel), SeqID No 198 peptide (FIG. 3D, left panel), SeqID No 587 peptide (FIG. 3E, left panel) and SeqID No 427 peptide (FIG. 3F, left panel), respectively. After three cycles of stimulation, the detection of peptide-reactive cells was performed by 2D multimer staining with A*02/SeqID No 662 (FIG. 3A), A*02/SeqID No 663 (FIG. 3B), A*02/SeqID No 11 (FIG. 3C), A*02/SeqID No 198 (FIG. 3D), A*02/SeqID No 587 (FIG. 3E) or A*02/SeqID No 427 (FIG. 3F). Right panels (FIGS. 3A, 3B, 3C, 3D, 3E, and 3F) show control staining of cells stimulated with irrelevant A*02/peptide complexes. Viable singlet cells were gated for CD8+ lymphocytes. Boolean gates helped excluding false-positive events detected with multimers specific for different peptides. Frequencies of specific multimer+ cells among CD8+ lymphocytes are indicated.
In Vitro Immunogenicity for MHC Class I Presented Peptides
In order to obtain information regarding the immunogenicity of the TUMAPs of the present invention, the inventors performed investigations using an in vitro T-cell priming assay based on repeated stimulations of CD8+ T cells with artificial antigen presenting cells (aAPCs) loaded with peptide/MHC complexes and anti-CD28 antibody.
In Vitro Priming of CD8+ T Cells
In order to perform in vitro stimulations by artificial antigen presenting cells loaded with peptide-MHC complex (pMHC) and anti-CD28 antibody, the inventors first isolated CD8+ T cells from fresh HLA-A*02 leukapheresis products via positive selection using CD8 microbeads (Miltenyi Biotec, Bergisch-Gladbach, Germany) of healthy donors obtained from the University clinics Mannheim, Germany, after informed consent.
PBMCs and isolated CD8+ lymphocytes were incubated in T-cell medium (TCM) until use consisting of RPMI-Glutamax (Invitrogen, Karlsruhe, Germany) supplemented with 10% heat inactivated human AB serum (PAN-Biotech, Aidenbach, Germany), 100 U/ml Penicillin/100 μg/ml Streptomycin (Cambrex, Cologne, Germany), 1 mM sodium pyruvate (CC Pro, Oberdorla, Germany), 20 μg/ml Gentamycin (Cambrex). 2.5 ng/ml IL-7 (PromoCell, Heidelberg, Germany) and 10 U/ml IL-2 (Novartis Pharma, Nümberg, Germany) were also added to the TCM at this step.
Generation of pMHC/anti-CD28 coated beads, T-cell stimulations and readout was performed in a highly defined in vitro system using four different pMHC molecules per stimulation condition and 8 different pMHC molecules per readout condition.
The purified co-stimulatory mouse IgG2a anti human CD28 Ab 9.3 (Jung et al., 1987) was chemically biotinylated using Sulfo-N-hydroxysuccinimidobiotin as recommended by the manufacturer (Perbio, Bonn, Germany). Beads used were 5.6 μm diameter streptavidin coated polystyrene particles (Bangs Laboratories, Illinois, USA).
pMHC used for positive and negative control stimulations were A*0201/MLA-001 (peptide […] (SEQ ID NO. 664) from modified Melan-A/MART-1) and A*0201/DDX5-001 ([…] from DDX5, SEQ ID NO. 665), respectively.
800.000 beads/200 μl were coated in 96-well plates in the presence of 4×12.5 ng different biotin-pMHC, washed and 600 ng biotin anti-CD28 were added subsequently in a volume of 200 μl. […]

[2] = target: HLA-A*02:01 (Homo sapiens, UniProt P04439, D140Y/D185E/D98H/E176V/E277Q/G131W/G231S/I119V/I121R/I166T/I218V/L300P/L318F/N151K/N90K/P208A/P217A/Q86G/Q94H/R138H/R169H/T345S); assay: MHC binding assay (UV-ligand exchange, anti-β2m ELISA, peptide exchange yield); details: binding to HLA-A*02:01
Summary of the method: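 Peptide-MHC complexes formed by UV-ligand exchange, cleaving a UV-sensitive placeholder peptide in favour of the test peptide. Exchange yield measured by ELISA: monomers diluted 100-fold onto streptavidin-coated plates, 1 h 37 °C, detected with 2 ug/ml HRP anti-β2m and TMB, absorbance at 450 nm.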

Row | Peptide exchange (MHC class I binding score, peptide exchange yield) [2] | Substance | Wells positive [%] [1] | donors ([1]; percentage of positive donors) | wells ([1]; percentage of positive wells)
1 | “+++” (>50 = +++) | 247 (VLLPNDLLEKV; listed as Homo sapiens) [compound 247] | “+” (<20% = +) |  | 
2 | “+++” (>50 = +++) | 283 (ALYIGDGYVIHLA; listed as Homo sapiens) [compound 283] |  | +++ (50% - 69% = +++) | + (<20% = +)
3 | “++” (>20% = ++) | 319 (SLEPQIQPV; listed as Homo sapiens) [compound 319] | “+” (<20% = +) |  | 
4 | “+++” (>50 = +++) | 384 (ILFANPNIFV; listed as Homo sapiens) [compound 384] | “+” (<20% = +) |  | 
5 | “++++” (>75% = ++++) | 395 (ALALGGIAVV; listed as Homo sapiens) [compound 395] | “+++” (50% - 69% = +++) |  | 
6 | “+++” (>50 = +++) | 443 (GLWEIENNPTV; listed as Homo sapiens) [compound 443] | “+” (<20% = +) |  | 
7 | “+++” (>50 = +++) | 446 (QLIPALAKV; listed as Homo sapiens) [compound 446] | “++” (20% - 49% = ++) |  | 
8 | “+++” (>50 = +++) | 454 (KLPPPPPQA; listed as Homo sapiens) [compound 454] | “++” (20% - 49% = ++) |  | 
9 | “++++” (>75% = ++++) | 460 (AMLEKNYKL; listed as Homo sapiens) [compound 460] | “+” (<20% = +) |  | 
10 | “+++” (>50 = +++) | 463 (SLVESHLSDQLTL; listed as Homo sapiens) [compound 463] | “++” (20% - 49% = ++) |  | 
11 | “+++” (>50 = +++) | 489 (KMWEELPEVV; listed as Homo sapiens) [compound 489] | “+” (<20% = +) |  | 
12 | “++” (>20% = ++) | 499 (KIFDIDEAEEGV; listed as Homo sapiens) [compound 499] | “+” (<20% = +) |  | 
13 | “++” (>20% = ++) | 511 (FLDPYCSASV; listed as Homo sapiens) [compound 511] | “+” (<20% = +) |  | 
14 | “+++” (>50 = +++) | 518 (KLNAEVACV; listed as Homo sapiens) [compound 518] | “++” (20% - 49% = ++) |  | 
15 | “++” (>20% = ++) | 603 (FLIEPEHVNTV; listed as Homo sapiens) [compound 603] | “+” (<20% = +) |  | 
